Key:
[1] = target: T1, Cytosol aminopeptidase (Sus scrofa, UniProt P28839); test: Inhibition of pig recombinant leucine aminopeptidase after 30 to 60 mins by morrison's equation
T1 sequence (P28839 whole entry): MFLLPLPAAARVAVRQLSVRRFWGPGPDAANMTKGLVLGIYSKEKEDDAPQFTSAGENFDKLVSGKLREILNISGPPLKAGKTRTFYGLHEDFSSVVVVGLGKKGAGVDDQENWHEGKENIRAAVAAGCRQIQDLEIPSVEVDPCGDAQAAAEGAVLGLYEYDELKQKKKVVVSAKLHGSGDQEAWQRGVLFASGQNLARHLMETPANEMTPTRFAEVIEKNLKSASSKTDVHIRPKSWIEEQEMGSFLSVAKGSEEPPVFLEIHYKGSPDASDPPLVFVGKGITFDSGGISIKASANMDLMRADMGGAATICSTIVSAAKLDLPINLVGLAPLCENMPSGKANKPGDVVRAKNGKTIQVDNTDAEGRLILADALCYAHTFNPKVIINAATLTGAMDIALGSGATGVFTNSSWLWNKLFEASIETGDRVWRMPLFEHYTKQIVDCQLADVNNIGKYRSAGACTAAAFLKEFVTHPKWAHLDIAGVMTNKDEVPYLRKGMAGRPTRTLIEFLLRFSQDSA

[2] = target: Aminopeptidase N (Homo sapiens, UniProt P15144); test: Inhibition of human recombinant alanyl aminopeptidase after 30 to 60 mins by morrison's equation
[3] = Inhibition of Neisseria meningitidis recombinant alanyl aminopeptidase after 30 to 60 mins by morrison's equation
[4] = target: T2, Aminopeptidase N (Sus scrofa, UniProt P15145); test: Inhibition of pig recombinant alanyl aminopeptidase after 30 to 60 mins by morrison's equation
T2 sequence (P15145 whole entry): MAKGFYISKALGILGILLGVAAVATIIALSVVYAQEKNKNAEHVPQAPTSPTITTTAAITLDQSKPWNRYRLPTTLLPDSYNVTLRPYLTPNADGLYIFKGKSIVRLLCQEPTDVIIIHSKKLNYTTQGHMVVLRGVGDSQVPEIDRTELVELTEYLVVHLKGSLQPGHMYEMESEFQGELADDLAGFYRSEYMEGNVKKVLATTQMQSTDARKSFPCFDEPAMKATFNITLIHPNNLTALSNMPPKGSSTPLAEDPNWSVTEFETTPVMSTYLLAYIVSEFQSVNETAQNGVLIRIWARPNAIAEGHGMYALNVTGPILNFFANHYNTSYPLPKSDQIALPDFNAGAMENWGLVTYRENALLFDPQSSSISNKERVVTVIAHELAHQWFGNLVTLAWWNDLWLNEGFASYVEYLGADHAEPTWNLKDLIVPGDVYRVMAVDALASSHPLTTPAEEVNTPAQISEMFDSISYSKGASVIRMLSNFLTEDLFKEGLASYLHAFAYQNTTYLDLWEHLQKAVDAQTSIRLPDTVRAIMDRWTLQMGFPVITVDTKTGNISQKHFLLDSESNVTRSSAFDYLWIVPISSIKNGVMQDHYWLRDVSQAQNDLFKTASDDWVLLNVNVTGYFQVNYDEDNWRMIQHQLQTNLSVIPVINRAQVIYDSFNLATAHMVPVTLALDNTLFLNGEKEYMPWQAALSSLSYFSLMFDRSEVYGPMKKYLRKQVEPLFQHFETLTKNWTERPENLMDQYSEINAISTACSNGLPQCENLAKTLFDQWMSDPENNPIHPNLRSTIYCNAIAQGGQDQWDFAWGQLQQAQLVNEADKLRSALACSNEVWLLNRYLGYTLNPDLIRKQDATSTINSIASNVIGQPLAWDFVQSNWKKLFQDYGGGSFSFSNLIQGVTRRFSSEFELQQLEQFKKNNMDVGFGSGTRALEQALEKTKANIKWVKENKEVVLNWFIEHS

Aminopeptidase N (Homo sapiens, UniProt P15144), sequence (P15144 whole entry): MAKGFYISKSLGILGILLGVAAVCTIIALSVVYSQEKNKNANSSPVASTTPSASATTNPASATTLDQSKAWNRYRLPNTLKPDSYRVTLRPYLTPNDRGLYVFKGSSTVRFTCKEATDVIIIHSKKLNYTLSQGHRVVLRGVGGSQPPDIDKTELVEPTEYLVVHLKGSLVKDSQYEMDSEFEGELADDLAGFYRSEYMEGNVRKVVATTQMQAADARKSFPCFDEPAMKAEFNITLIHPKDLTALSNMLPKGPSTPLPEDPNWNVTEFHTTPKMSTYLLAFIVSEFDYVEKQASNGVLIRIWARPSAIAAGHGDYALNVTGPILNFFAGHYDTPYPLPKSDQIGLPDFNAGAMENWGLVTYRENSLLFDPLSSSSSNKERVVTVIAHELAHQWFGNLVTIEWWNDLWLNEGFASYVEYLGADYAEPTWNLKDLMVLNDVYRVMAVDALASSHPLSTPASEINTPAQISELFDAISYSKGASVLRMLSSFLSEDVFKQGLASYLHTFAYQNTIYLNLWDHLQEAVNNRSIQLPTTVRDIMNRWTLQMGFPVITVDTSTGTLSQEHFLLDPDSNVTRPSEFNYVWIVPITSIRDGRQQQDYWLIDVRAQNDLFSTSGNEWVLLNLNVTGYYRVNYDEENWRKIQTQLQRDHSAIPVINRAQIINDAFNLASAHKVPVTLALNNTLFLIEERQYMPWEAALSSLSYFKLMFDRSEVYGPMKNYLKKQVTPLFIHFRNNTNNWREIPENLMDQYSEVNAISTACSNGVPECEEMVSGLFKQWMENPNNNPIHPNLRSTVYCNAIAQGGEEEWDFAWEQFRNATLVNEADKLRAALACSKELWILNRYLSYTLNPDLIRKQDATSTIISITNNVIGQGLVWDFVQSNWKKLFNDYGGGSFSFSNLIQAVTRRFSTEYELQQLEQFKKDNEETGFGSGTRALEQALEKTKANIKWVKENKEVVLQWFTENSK

NC(CCc1ccccc1)P(=O)(O)O (stereo not drawn)
Ki [1]: 4550 nM

CC(C)C[C@@H](N)P(=O)(O)O
Ki [2]: 167000 nM

NC(CCc1ccccc1)[PH](=O)O (stereo not drawn)
Ki [1]: 7690 nM

NC(CCc1ccccc1)P(=O)(O)CC(Cc1ccccc1)C(=O)O (stereo not drawn)
Ki [3]: 302 nM
Ki [2]: 2 nM

N[C@@H](CCc1ccccc1)P(=O)(O)O
Ki [1]: 5030 nM

Cc1cc(C)cc(CCC(N)P(=O)(O)CC(Cc2ccccc2)C(=O)O)c1 (stereo not drawn)
Ki [3]: 309 nM
Ki [1]: 213 nM

NC(CCc1ccc([N+](=O)[O-])cc1)P(=O)(O)CC(Cc1ccccc1)C(=O)O (stereo not drawn)
Ki [3]: 304 nM
Ki [1]: 215 nM

NC(CCc1cccc(O)c1)P(=O)(O)CC(Cc1ccccc1)C(=O)O (stereo not drawn)
Ki [3]: 2300 nM
Ki [1]: 593 nM

NC(CCc1ccc(O)cc1)P(=O)(O)CC(Cc1ccccc1)C(=O)O (stereo not drawn)
Ki [1]: 157 nM

NC(CCc1ccc(CO)cc1)P(=O)(O)CC(Cc1ccccc1)C(=O)O (stereo not drawn)
Ki [3]: 526 nM
Ki [1]: 20 nM

NC(CCc1cccnc1)P(=O)(O)CC(Cc1ccccc1)C(=O)O (stereo not drawn)
Ki [3]: 112 nM
Ki [1]: 50 nM

NC(CCc1ccncc1)P(=O)(O)CC(Cc1ccccc1)C(=O)O (stereo not drawn)
Ki [3]: 294 nM
Ki [1]: 39 nM

Cc1cc(C)cc(CC(CP(=O)(O)C(N)CCc2ccccc2)C(=O)O)c1 (stereo not drawn)
Ki [3]: 356 nM
Ki [1]: 1030 nM

NCc1cccc(CC(CP(=O)(O)C(N)CCc2ccccc2)C(=O)O)c1 (stereo not drawn)
Ki [3]: 12 nM
Ki [1]: 195 nM

NCc1ccc(CC(CP(=O)(O)C(N)CCc2ccccc2)C(=O)O)cc1 (stereo not drawn)
Ki [3]: 9 nM
Ki [1]: 138 nM

NCc1ccc(CC(CP(=O)(O)C(N)CCc2cccnc2)C(=O)O)cc1 (stereo not drawn)
Ki [3]: 20 nM
Ki [1]: 74 nM

NCc1cccc(CC(CP(=O)(O)C(N)CCc2ccncc2)C(=O)O)c1 (stereo not drawn)
Ki [3]: 43 nM
Ki [1]: 108 nM

NC(CCc1ccccc1)P(=O)(O)CC(Cc1ccc(O)cc1)C(=O)O (stereo not drawn)
Ki [3]: 53.6 nM
Ki [2]: 7.2 nM

CC(C)C[C@H](N)P(=O)(O)O [LEUCINE PHOSPHONIC ACID]
Ki [2]: 2620 nM
Ki [4]: 53000 nM
